pEC50: −log10 of the molar value. In brackets after ≈: the same amount, converted by molar mass. Activity calls are given as the source filed them. The rule behind the calls is not given here.
Legend:
HUVEC [1] = assay: Anti-ferroptosis activity against […]-induced ferroptosis in HUVEC cells assessed as increase in cell viability at 10 uM incubated for 24 hrs by SRB assay; type: functional, cell-based; conditions: Homo sapiens
[2] = Metabolic stability in mouse liver microsomes assessed as half-life; type: ADME, Microsome
[3] = Stability in mouse plasma assessed as parent compound remaining measured after 6 hrs; type: ADME, cell-free; conditions: read-out: Stability
HUVEC [4] = assay: Anti-ferroptosis activity against […]-induced ferroptosis in HUVEC cells assessed as increase in cell viability incubated for 24 hrs by SRB assay; type: functional, cell-based; conditions: Homo sapiens
[5] = Metabolic stability in human liver microsomes assessed as half-life; type: ADME, Microsome
[6] = Kinetic solubility of compound; type: physicochemical; conditions: read-out: Kinetic_solubility
HUVEC [7] = assay: Anti-ferroptosis activity against erastin-induced ferroptosis in HUVEC cells assessed as decrease in intracellular lipid ROS level at 10 uM incubated for 24 hrs by BODIPY 581/591 dye based assay; type: functional, cell-based; conditions: Homo sapiens
HUVEC [8] = assay: Anti-ferroptosis activity against erastin-induced ferroptosis in HUVEC cells assessed as reduction in malondialdehyde content at 10 uM incubated for 24 hrs by lipid peroxidation MDA assay; type: functional, cell-based; conditions: Homo sapiens
HUVEC [9] = assay: Anti-ferroptosis activity against erastin-induced ferroptosis in HUVEC cells assessed as upregulation of intracellular GSH level at 10 uM incubated for 24 hrs; type: functional, cell-based; conditions: Homo sapiens
HUVEC [10] = assay: Anti-ferroptosis activity against erastin-induced ferroptosis in HUVEC cells assessed as reduction in accumulation of lipid peroxidation at 10 uM incubated for 24 hrs by LPO assay; type: functional, cell-based; conditions: Homo sapiens
HUVEC [11] = assay: Anti-ferroptosis activity against erastin-induced ferroptosis in HUVEC cells assessed as upregulation of intracellular GPX4 level at 10 uM incubated for 24 hrs by Western blot analysis; type: functional, cell-based; conditions: Homo sapiens
HUVEC [12] = assay: Anti-ferroptosis activity against erastin-induced ferroptosis in HUVEC cells assessed as decrease in free ferrous ion level at 10 uM incubated for 24 hrs by Ferro orange fluorescent probe based assay; type: functional, cell-based; conditions: Homo sapiens

Structure (SMILES) | Activity (HUVEC [1]) | pEC50 (HUVEC [4]) | other results
CCNC(=O)c1ccc(NC2CCCCC2)c(NC(=O)Cc2ccc(F)cc2)c1 | Active |  | 
CCNC(=O)c1ccc(NC2CCCCC2)c(NC(=O)Cc2ccc(F)c(Br)c2)c1 | Active |  | 
CCNC(=O)c1ccc(NC2CCCCC2)c(NC(=O)Cc2cccc(Br)c2)c1 | inactive |  | 
CCNC(=O)c1ccc(NC2CCCCC2)c(NCc2ccccc2)c1 | Active; Compound Exhibited Comparable Activity To Ferrostatin-1 | 5.21 | half-life [2]: 19.6 min; remaining at 6 h [3]: 0%; half-life [5]: 38.9 min; solubility kinetic [6]: 50 µM (≈ 17.6 µg/mL)
CCNC(=O)c1ccc(NC2CCCCC2)c(NC(=O)/C=C/c2cccc(Br)c2)c1 | Active |  | 
CCNC(=O)c1ccc(NC2CCCCC2)c(NC(=O)/C=C/c2ccccc2)c1 | Active; Compound Exhibited Comparable Activity To Ferrostatin-1 | 6.05 | 
CCNC(=O)c1ccc(NC2CCCCC2)c(NC(=O)Cc2cc(OC)c(OC)c(OC)c2)c1 | inactive |  | 
CCNC(=O)c1ccc(NC2CCCCC2)c(NC(=O)Cc2ccc(OC)c(OC)c2)c1 | Active |  | 
CCNC(=O)c1ccc(NC2CCCCC2)c(NC(=O)Cc2ccc(OC)cc2)c1 | Active; Compound Exhibited Comparable Activity To Ferrostatin-1 | 6.01 | 
CCNC(=O)c1ccc(NC2CCCCC2)c(NC(=O)Cc2cc(F)c(F)cc2Br)c1 | Active; Compound Exhibited Comparable Activity To Ferrostatin-1 | 6.09 | 
CCNC(=O)c1ccc(NC2CCCCC2)c(NC(=O)Cc2ccc(C)cc2)c1 | inactive |  | 
CCNC(=O)c1ccc(NC2CCCCC2)c(NC(=O)/C=C/c2ccccc2OC)c1 | Active; Compound Exhibited Comparable Activity To Ferrostatin-1 | 5.96 | 
CCNC(=O)c1ccc(NC2CCCCC2)c(NC(=O)Cc2cc(Br)cc(Br)c2)c1 | Active |  | 
CCOC(=O)c1ccc(NC2CCCCC2)c(N)c1 | Active |  | half-life [2]: 2.7 min; Activity (HUVEC [7]): Active; remaining at 6 h [3]: 18%; half-life [5]: 16.8 min; Activity (HUVEC [8]): Active; solubility kinetic [6]: > 200 µM; Activity (HUVEC [9]): Active; Activity (HUVEC [10]): Active; Activity (HUVEC [11]): Active; Activity (HUVEC [12]): Active
CCNC(=O)c1ccc(NC2CCCCC2)c(NC(=O)/C=C/c2cc(OC)c(OC)cc2OC)c1 | Active; Compound Exhibited Comparable Activity To Ferrostatin-1; Most Significant Efficacy Observed | 6.24 | half-life [2]: 31.4 min; Activity (HUVEC [7]): Active; remaining at 6 h [3]: 48%; half-life [5]: 62.7 min; Activity (HUVEC [8]): Active; solubility kinetic [6]: 33.3 µM (≈ 16 µg/mL); Activity (HUVEC [9]): Active; Activity (HUVEC [10]): Active; Activity (HUVEC [11]): Active; Activity (HUVEC [12]): Active; Higher Effectiveness Compared To Ferrostatin-1
CCNC(=O)c1ccc(NC2CCCCC2)c(NC(=O)C(c2ccccc2)c2ccccc2)c1 | Active; Compound Exhibited Comparable Activity To Ferrostatin-1 | 6.00 | 
CCNC(=O)c1ccc(NC2CCCCC2)c(NC(=O)Cc2cc(Br)ccc2Br)c1 | inactive |  | 
CCNC(=O)c1ccc(NC2CCCCC2)c(NC(=O)Cc2ccc(OC)c(Br)c2)c1 | inactive |  | 
CCNC(=O)c1ccc(NC2CCCCC2)c(NC(=O)Cc2cc(Br)ccc2F)c1 | Active |  | 
CCNC(=O)c1ccc(NC2CCCCC2)c(NC(=O)/C=C/c2cccc(OC)c2OC)c1 | Active |  | 
CCNC(=O)c1ccc(NC2CCCCC2)c(NC(=O)CCc2ccc(OC)cc2)c1 | Active |  | 
CCNC(=O)c1ccc(NC2CCCCC2)c(NC(=O)Cc2cccc(OC)c2)c1 | Active |  | 
CCNC(=O)c1ccc(NC2CCCCC2)c(NC(=O)/C=C/c2ccc(O)c(OC)c2)c1 | Active |  | 

From ChEMBL document CHEMBL6083230, “Synthesis and biological evaluation of ferrostatin-based diamide derivatives as new ferroptosis inhibitors” (Bioorg Med Chem Lett, 2024)
